Patent US8575145B2, “Triazolopyridine compounds as PIM kinase inhibitors” (Array BioPharma Inc., priority 2008, dated 2013)
Counter-ions that a name gives are not always drawn.

Key:
[1] = tested on: C57BL/6J mice immunized with hen egg lysozyme; assay: B Cell in vivo Functional Assay (HEL-specific antibody isotypes); set-up: species or system mouse; conditions: 200 mg/kg oral once a day, Day 21, vs vehicle
Method: To determine the effect of a compound of Formula I on B cell responses, the following experiment was conducted. On Day O, C57BL/6J mice (Jackson Laboratories #000664, 6-8 weeks of age) were immunized at the base of the tail with 20 μg of hen egg lysozyme (HEL; Sigma #L7773) with complete Freund's adjuvant (CFA; Sigma #F5881). Mice were re-immunized on day 7 with 20 μg HEL in alum (Pierce catalog #77161). Starting on Day 0 and continuing through Day 28, mice were dosed once a day by oral administration with vehicle (water) or the compound of Example 26 (200 mg/kg). Serum was collected on days 0, 7, 14, 21, and 28 and analyzed for HEL-specific total IgG, IgG1, IgG2a, IgG2b, and IgG3 antibody production by capture ELISA (antibodies purchased from Invitrogen, catalog #M30007, #M32107, #M32307, #M32507, #M32607). ELISA plates were quantitated using Molecular Devices Versamax reader at […]. The group mean titer of each antibody analyte was converted to percent of vehicle control (=100%).

[2] = tested on: C57BL/6J mice, MOG-induced EAE; assay: MOG(35-55)-induced Experimental Autoimmune Encephalomyelitis; type: in vivo, mouse; conditions: 200 mg/kg oral gavage twice daily, days 7 through 27; vehicle and untreated 3.0
Method: To further determine the effect of compounds of Formula I on an autoimmune disease associated with T cells and cytokines, a MOG-induced experimental autoimmune encephalomyelitis (EAE) experiment was performed. MOG-induced EAE is an animal model of human multiple sclerosis (Brain (2006), 129, 1953-1971).
On Day 0, C57BL/6J mice (Jackson Laboratories #000664, 6-8 weeks of age) were injected subcutaneously with 100 μL of complete Freund's adjuvant (CFA) prepared as a 1:1 emulsion of (a) incomplete Freund's adjuvant (Difco, catalog #263910) containing 8 mg/mL m. tuberculosis H37RA (Difco, catalog #231141) and (b) phosphate buffered saline (PBS) containing 1 mg/mL MOG(35-55) peptide (California Peptide Research Inc). On the day 0 and 2, mice were injected intravenously with 200 ng of pertussis toxin (List Biological Laboratories, catalog #181). On day 7, the mice were randomized into treatment groups which received vehicle (distilled water) or the compound of Example 26 (200 mg/kg) administered by oral gavage twice daily from days 7 through 27.
The mice were scored daily on days 7 through 37 using the following clinical scoring system:
1.5—unsteady gait, mild hind limb ataxia
2.0—partial hind limb paralysis (hind limbs carrying weight)
2.5—partial hind limb paralysis (hind limbs not carrying weight)
3.0—full hind limb paralysis
3.5—full hind limb paralysis and partial front limb paralysis

[3] = tested on: MRL/MpJ-Fas<lpr> mice; assay: MRL/lpr Lupus Model; type: in vivo, mouse; conditions: 200 mg/kg twice daily
Text: MRL/lpr is considered to be an animal model of systemic lupus erythematosus (SLE), an autoimmune disease (Cohen and Maldonado 2003, Current Protocols in Immunology Chapter 15, Unit 15.20). MRL/lpr mice have a defect in the apoptosis of activated lymphocytes and over time develop a spontaneous and severe lymphoproliferative disorder characterized by enlarged lymphoid organs, auto-antibody production and kidney disease resulting in proteinuria. […] To determine the effect of compounds of Formula I in this model of SLE, the following experiment was conducted.
MRL/MpJ-Fasand age-matched MRL/MpJ control mice (Jackson Laboratories, catalog #000485 and #000486, respectively) were treated once daily with vehicle (1% CMC/0.5% Tween 80) or twice daily with the compound of Example 26 (200 mg/kg) for 10 weeks. Body weights, lymphadenopathy and urine protein levels were monitored weekly. Urine protein levels were determined with Bayer Albustix dipsticks (Bayer catalog #2191) and scored according to the following scale:
Serum levels of anti-ds-DNA antibody were measured by ELISA (Alpha Diagnostic, catalog #5120) on Day 28 and upon study termination. ELISA plates were quantitated using a Molecular Devices Versamax plate reader at […] and titers calculated relative using to a standard curve using a 4-parameter curve fit with Softmax Pro software.

Compound: F[C@@H]1CNCCC1Oc1cccc2ccc(-c3nnc4ccccn34)nc12 (stereo in doubt) [Example 26, 2-([1,2,4]triazolo[4,3-a]pyridin-3-yl)-8-((cis)-3-fluoropiperidin-4-yloxy)quinoline dihydrochloride]
- HEL-specific IgG2a titer [1]: decreased
- HEL-specific IgG2b titer [1]: decreased
- HEL-specific IgG3 titer [1]: decreased
- median maximal clinical score [2]: 1.5
- proteinuria over time ([3]; 10 weeks, relative to vehicle control): prevents the development of proteinuria
- decrease in serum anti-dsDNA relative to vehicle control ([3]; 28 days): 74%
- decrease in serum anti-dsDNA antibodies relative to vehicle control ([3]; study termination (79 days of dosing)): 99%
